In the NIST ThermoML archive (doi:10.1021/acs.jced.6b00120):

Assay: xn = mol fraction of the nth substance listed
Settings: Gas, Buoyancy - hydrostatic balance with magnetic suspension - two sinkers, x1 = 0.05049

[Ar] [argon] + O=C=O
Settings	mass density [kg/m3]
273.15 K, 526.54 kPa	10.5097
273.15 K, 1045.7 kPa	21.6518
273.15 K, 2054.6 kPa	46.254
273.15 K, 2521.6 kPa	59.4639
273.15 K, 2948.2 kPa	72.995
283.15 K, 487.17 kPa	9.32016
283.15 K, 1034 kPa	20.4562
283.15 K, 2045.6 kPa	43.428
283.15 K, 3054.1 kPa	70.7119
283.15 K, 4058.4 kPa	105.393
293.15 K, 501.22 kPa	9.23865
293.15 K, 1009.9 kPa	19.1313
293.15 K, 2033.5 kPa	40.9568
293.15 K, 3031.1 kPa	65.5032
293.15 K, 4032.7 kPa	95.0463
293.15 K, 5045.2 kPa	133.561
293.15 K, 5530.5 kPa	157.768
308.15 K, 493.91 kPa	8.62503
308.15 K, 996.02 kPa	17.7876
308.15 K, 2002.5 kPa	37.5504
308.15 K, 3004.5 kPa	59.5083
308.15 K, 4005.8 kPa	84.4871
308.15 K, 5012.9 kPa	113.924
308.15 K, 6005.3 kPa	149.364
308.15 K, 6991.8 kPa	195.441
308.15 K, 7418.4 kPa	221.117
308.15 K, 7793.4 kPa	248.529
323.15 K, 521.21 kPa	8.65936
323.15 K, 1030.2 kPa	17.4463
323.15 K, 2009.8 kPa	35.3997
323.15 K, 3012.4 kPa	55.4385
323.15 K, 4030.3 kPa	77.9178
323.15 K, 5045.6 kPa	103.062
323.15 K, 6032.4 kPa	130.908
323.15 K, 7032.7 kPa	163.762
323.15 K, 8023.8 kPa	202.754
323.15 K, 8533.5 kPa	226.233
323.15 K, 8988 kPa	249.635
